# Results published in US20240210394A1, “MICROORGANISM CAPTURE FROM ANTIMICROBIAL-CONTAINING SOLUTION” (MOMENTUM BIOSCIENCE LIMITED, priority 2019, published 2024).
# Several values for one entry are separate records, joined by “and”; a condition that tells them apart may be missing. Identical values can stand only once.
# Tested on: E. coli
# Experiment: ETGA (microbial polymerase) qPCR after microbial capture (Magnitor test)
# Format: cell-based
# Parameters: ETGA results CV: unit not given here
# Method: The Magnitor test consists of two microbial detection read-outs: • ETGA: detection of microbial polymerase from intact microbial cells • Confirm: detection of microbial DNA according to gram status (Gram Negative, Gram Positive, or Candida) […]
# • E. coli o/n liquid culture 1E-3 dilution spiked into blood broth (6.25 μL o/n per mL: 244 μL o/n+39 mL blood broth) and […] out-growth performed in shaking incubator @ 37° C., 500 rpm • Following 2-hour outgrowth, samples produced by adding 1 mL specimen to 2 mL tube containing buffer (and 15 μL BioEstapor beads (Merck, Cat #BE-M 08/0.3) for Mag Beads sample-set): triplicate E. coli (EC) and No Spike Control (NSC) samples per test condition • 100 μL TVCs performed for NSC and E. coli (including dilutions of specimen to ensure countable plates)
# • Samples centrifuged for 3 minutes at 9000×g (tube hinges facing outwards for pellet traceability) • Supernatants removed • 50 μL LM added to samples (approx. 10× pipette mixes to resuspend pellets) • Samples placed in shaking incubator at 900 rpm for 5 minutes and then 800 rpm for 55 minutes (26° C.) • Centrifuge samples at 17000×g for 1 minute before qPCR set-up
# • Samples placed in shaking incubator at 900 rpm for 30 minutes (37° C.) • Samples placed on DynaMag-2 magnetic rack for 5 minutes and then supernatants removed • 50 μL LM added to samples (approx. 10× pipette mixes to resuspend pellets) • Samples placed in shaking incubator at 900 rpm for 5 minutes and then 800 rpm for 55 minutes (26° C.) • Magnetise samples for 3 minutes before qPCR set-up Manual qPCR set-up (10 μL reactions) for ETGA mastermix only
# • E. coli o/n liquid culture set-up as standard in BacTec PLUS aerobic broth, then following day (approx. 16 hours later) 1.88 μL o/n added to 3 mL broth (equivalent to EC 1E-1 dilution added to broth at 6.25 μL/mL) and 2-hour outgrowth performed at 37° C., 500 rpm. • Following 2-hour outgrowth, E. coli preculture serially diluted (DF10) down to EC 1E-6 in either prewarmed blood-broth (BB), broth only (BO) or 1× buffer (B-BUF or Tris+NaCl). • 100 μL TVCs performed for all E. coli dilutions and NSCs
# • 1 mL samples added to 2 mL tubes containing 112 μL of binding buffer (either B-BUF or Tris+NaCl: 10× for BB and BO sample-sets; and 1× for Buffer sample-sets)+15 μL beads (prewashed in respective buffer) • 30 mins shaking (1000 rpm) @ 37° C. • 5 mins magnetisation on DynaMag-2 • All s/n removed • 1 mL WB added and tubes mixed for 2 mins @ RT (1000 rpm) • 5 mins magnetisation on Dynmag-2 • All s/n removed • 50 μL LM added to tubes off magnet (5 μL Polymerase Control (PC) added to each PC sample tube) • ETGA reaction performed: 5 mins at 1000 rpm, then 55 mins at 800 rpm @26° C. • Manual qPCR set-up for ETGA and Confirm (10 μL reactions)
# • E. coli o/n liquid cultures set-up as standard in BacTec PLUS aerobic broth (containing SPS) and Nutrient Broth (NB containing no SPS), then the following day (approx. 16 hours later) 1.88 μL o/n added to 3 mL broth (equivalent to EC 1E-1 dilution added to broth at 6.25 μL/mL) for each broth type (NB in morning and PLUS broth in afternoon), and 2-hour outgrowth incubations performed at 37° C., 500 rpm. • For each experiment (NB and PLUS), 1E-1 E. coli preculture diluted down to E. coli 1E-6 (DF10) in each 1× buffer (BUF-1 to BUF-6) • 100 μL TVCs performed using a separate EC dilution set performed in relevant broth (NB or PLUS broth) to prevent plate viability inconsistencies resulting from different 1× buffers […]
substance,measurement,setting,value
Sodium polyanethol sulfonate [SPS],ETGA results Ave. ΔCt,WB SPS 0.01 %,4.70
same,ETGA results CV,WB SPS 0.01 %,56.59
same,ETGA results,"WB SPS 0.01 %, EC 1-3 replicates, Time ZERO",27.90 Ct and 29.12 Ct and 28.14 Ct
same,ETGA results,"WB SPS 0.01 %, NSC 1-3 replicates, NoCt changed to 50 Ct",33.39 Ct and 33.06 Ct and 32.81 Ct
same,ETGA results Ave. ΔCt,WB SPS 0.02 %,7.28
same,ETGA results CV,WB SPS 0.02 %,6.16
same,ETGA results,"WB SPS 0.02 %, EC 1-3 replicates, Time ZERO",26.41 Ct and 25.88 Ct and 27.24 Ct
same,ETGA results,"WB SPS 0.02 %, NSC 1-3 replicates, NoCt changed to 50 Ct",33.20 Ct and 33.77 Ct and 34.41 Ct
same,ETGA results Ave. ΔCt,WB SPS 0.04 %,9.65
same,ETGA results CV,WB SPS 0.04 %,4.40
same,ETGA results,"WB SPS 0.04 %, EC 1-3 replicates, Time ZERO",29.31 Ct and 29.43 Ct and 29.70 Ct
same,ETGA results,"WB SPS 0.04 %, NSC 1-3 replicates, NoCt changed to 50 Ct",38.93 Ct and 39.93 Ct and 38.54 Ct
same,ETGA results Ave. ΔCt,WB SPS 0.06 %,15.74
same,ETGA results CV,WB SPS 0.06 %,0.02
same,ETGA results,"WB SPS 0.06 %, EC 1-3 replicates, Time ZERO",28.70 Ct and 28.50 Ct and 27.62 Ct
same,ETGA results,"WB SPS 0.06 %, NSC 1-3 replicates, NoCt changed to 50 Ct",44.62 Ct and 44.11 Ct and 43.30 Ct
same,ETGA results Ave. ΔCt,WB SPS 0.08 %,18.12
same,ETGA results CV,WB SPS 0.08 %,0.01
same,ETGA results,"WB SPS 0.08 %, EC 1-3 replicates, Time ZERO",32.31 Ct and 31.94 Ct and 31.40 Ct
same,ETGA results,"WB SPS 0.08 %, NSC 1-3 replicates, NoCt changed to 50 Ct",50.00 Ct
same,ETGA results Ave. EC,WB SPS 0.1 %,34.07 Ct
same,ETGA results Ave. NSC,WB SPS 0.1 %,50.00 Ct
same,ETGA results Ave. ΔCt,WB SPS 0.1 %,15.93
same,ETGA results CV,WB SPS 0.1 %,0.02
same,ETGA results,"WB SPS 0.1 %, EC 1-3 replicates, Time ZERO",33.76 Ct and 34.37 Ct and 34.08 Ct
same,ETGA results,"WB SPS 0.1 %, NSC 1-3 replicates, NoCt changed to 50 Ct",50.00 Ct
